Source: patent US8461328B2, “Tricyclic heterocyclic compounds, compositions and methods of use thereof” (Genentech, Inc., priority 2010, dated 2013)

Columns and labels:
Type in all cases: biochemical
[1] = biological target: T1, JAK1 (Homo sapiens, UniProt P23458); assay: JAK1 inhibition (Table 4); details: read-out: JAK1 Ki
T1 construct: made in house; host or cells: SF9 insect cells (baculovirus)

[2] = biological target: T2, JAK3 (Homo sapiens, UniProt P52333); assay: JAK3 inhibition (Table 4); details: read-out: JAK3 Ki
T2 construct: made in house; host or cells: SF9 insect cells (baculovirus)
T2 sequence (P52333 783-1124): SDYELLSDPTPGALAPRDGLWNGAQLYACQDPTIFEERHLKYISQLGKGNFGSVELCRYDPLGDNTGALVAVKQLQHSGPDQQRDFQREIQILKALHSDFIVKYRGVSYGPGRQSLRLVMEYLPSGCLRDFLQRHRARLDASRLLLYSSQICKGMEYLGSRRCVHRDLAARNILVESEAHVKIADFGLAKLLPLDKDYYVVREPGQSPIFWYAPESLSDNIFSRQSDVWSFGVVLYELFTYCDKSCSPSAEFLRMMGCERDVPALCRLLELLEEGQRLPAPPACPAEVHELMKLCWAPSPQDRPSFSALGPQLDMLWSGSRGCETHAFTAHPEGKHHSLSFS

[3] = biological target: T3, JAK2 (Homo sapiens, UniProt O60674); assay: JAK2 inhibition (Table 4); details: read-out: JAK2 Ki
T3 construct: made in house; host or cells: SF9 insect cells (baculovirus)
T3 sequence (O60674 812-1132): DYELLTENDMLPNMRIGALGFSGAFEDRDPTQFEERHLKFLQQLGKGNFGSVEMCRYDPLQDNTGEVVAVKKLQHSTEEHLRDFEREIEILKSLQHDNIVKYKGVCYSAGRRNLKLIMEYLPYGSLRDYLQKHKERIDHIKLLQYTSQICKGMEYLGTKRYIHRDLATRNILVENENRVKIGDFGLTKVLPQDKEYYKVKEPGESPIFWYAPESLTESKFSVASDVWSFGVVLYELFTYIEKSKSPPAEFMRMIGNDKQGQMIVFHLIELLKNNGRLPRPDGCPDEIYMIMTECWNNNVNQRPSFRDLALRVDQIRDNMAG

[4] = biological target: T4, TYK2 (Homo sapiens, UniProt P29597); assay: TYK2 inhibition (Table 4)
T4 construct: made in house; host or cells: SF9 insect cells (baculovirus)
T4 sequence (P29597 873-1187): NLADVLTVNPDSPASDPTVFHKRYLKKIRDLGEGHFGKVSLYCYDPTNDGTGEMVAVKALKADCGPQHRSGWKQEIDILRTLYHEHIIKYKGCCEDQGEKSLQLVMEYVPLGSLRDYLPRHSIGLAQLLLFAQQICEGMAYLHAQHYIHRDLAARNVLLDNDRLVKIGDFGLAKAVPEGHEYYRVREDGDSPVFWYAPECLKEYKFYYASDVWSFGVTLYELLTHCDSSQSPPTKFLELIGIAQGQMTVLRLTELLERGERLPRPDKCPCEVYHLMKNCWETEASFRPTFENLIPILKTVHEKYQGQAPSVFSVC

T1 sequence (P23458 852-1154): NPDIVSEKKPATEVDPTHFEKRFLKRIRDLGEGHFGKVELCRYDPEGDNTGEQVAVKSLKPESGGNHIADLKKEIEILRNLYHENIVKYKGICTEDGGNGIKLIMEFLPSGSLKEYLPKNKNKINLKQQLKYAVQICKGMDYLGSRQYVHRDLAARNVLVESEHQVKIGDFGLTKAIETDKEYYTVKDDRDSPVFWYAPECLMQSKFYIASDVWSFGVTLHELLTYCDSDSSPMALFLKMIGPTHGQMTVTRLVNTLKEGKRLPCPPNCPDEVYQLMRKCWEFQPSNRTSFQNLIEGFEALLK

Row | Ki [1] [nM] | Ki [2] [nM] | Ki [3] [nM] | Ki [4] [nM] | Structure (SMILES)
1 | 8.8 | 42.7 | 32.7 | 207 | COCCNc1nc2cnc3[nH]ccc3c2n1C1CCN(CCC#N)CC1 [Example 770, 3-{4-[2-(2-Methoxy-ethylamino)-6H-1,3,5,6-tetraaza-as-indacen-1-yl]-piperidin-1-yl}-propionitrile]
2 | 2.06 | 19.1 | 6.62 | 27.8 | CNc1nc2cnc3[nH]ccc3c2n1C1CCN(CCC#N)CC1 [Example 771, 3-[4-(2-Methylamino-6H-1,3,5,6 tetraaza-asindacen-1-yl)-piperidin-1-yl]-propionitrile]
3 | 1.36 | 43.5 | 5.7 | 320 | CNc1nc2cnc3[nH]ccc3c2n1C1CCN(Cc2cccc(C#N)c2)CC1 [Example 772, 3-[4-(2-Methylamino-6H-1,3,56-tetraaza-as-indacen-1-yl)-piperidine-1-yl-methyl]-benzonitrile]
4 | 12.2 | 126 | 81.4 | 149 | CNc1nc2cnc3[nH]ccc3c2n1C1CCCOC1 (stereo not drawn) [Example 773, Methyl-[1-(tetrahydro-pyran-3-yl)-1,6-dihydro-1,3,5,6-tetraaza-as-indacen-2-yl]-amine]
5 | 40.7 | 242 | 82.7 | 141 | CNc1nc2cnc3[nH]ccc3c2n1C1CCN(S(C)(=O)=O)CC1 [Example 774, [1-(1-Methanesulfonyl-piperidin-4-yl) 1,6-dihydro-1,3,5,6-tetraaza-as-indacen-1-yl]-methyl-amine]
6 | 0.99 | 1.88 | 10.4 | 0.73 | C[C@@H](O)c1nc2cnc3[nH]ccc3c2n1C1CCC(C#N)CC1 (stereo partly drawn) [Example 776, 4-[2-((R)-1-Hydroxy-ethyl)-6H-1,3,5,6-tetraaza-as-indacen-1-yl]-cyclohexanecarbonitrile]
7 | 1.3 | 1.04 | 6.86 | 0.64 | N#CC1CCC(n2c(CO)nc3cnc4[nH]ccc4c32)CC1 (stereo not drawn) [Example 777, 4-(2-Hydroxymethyl-6H-1,3,5,6-tetraaza-as-indacen-1-yl)-cyclohexanecarbonitrile]
8 | 0.65 | 42.4 | 13.2 | 6.89 | C[C@@H](O)c1nc2cnc3[nH]ccc3c2n1C1CCC(CCS(C)(=O)=O)CC1 (stereo partly drawn) [Example 778, (R)-1-{1-[4-(2-methanesulfonyl-ethyl)-cyclohexyl]-1,6-dihydro-1,3,5,6-tetraaza-as-indacen-2-yl}-ethanol]
9 | 4.87 | 233 | 73.8 | 39 | C[C@@H](O)c1nc2cnc3[nH]ccc3c2n1C1CCC(n2cncn2)CC1 (stereo partly drawn) [Example 779, (R)-1-[1-(4-[1,2,4]triazol-1-yl-cyclohexyl)-1,6-dihydro-1,3,5,6-tetraaza-as-indacen-2-yl]-ethanol]
10 | 286 | 2970 | 1470 | 3040 | C[C@H](O)c1nc2cnc3[nH]ccc3c2n1[C@@H]1CCCN(C(=O)CC(F)(F)F)C1 [Example 782, 3,3,3-Trifluoro-1-{(R)-3-[2-((S)-1-hydroxy-ethyl)-6H-1,3,5,6-tetraaza-as-indacen-1-yl]-piperidin-1-yl}-propan-1-one]
11 | 137 | 2660 | 1460 | 1790 | C[C@@H](O)c1nc2cnc3[nH]ccc3c2n1[C@@H]1CCCN(C(=O)C2CCOCC2)C1 [Example 783, {(R)-3-[2-((R)-1-Hydroxy-ethyl)-6H-1,3,5,6-tetraaza-as-indacen-1-yl]-piperidin-1-yl}-(tetrahydro-pyran-4-yl)-methanone]
12 | 31.9 | 566 | 373 | 278 | C[C@@H](O)c1nc2cnc3[nH]ccc3c2n1[C@@H]1CCCN(C(=O)CC(F)(F)F)C1 [Example 785, 3,3,3-Trifluoro-1-{(R)-3-[2-((R)-1-hydroxy-ethyl)-6H-1,3,5,6-tetraaza-as-indacen-1-yl]-piperidin-1-yl}-propan-1-one]
13 | 52.5 | 1120 | 596 | 599 | CC(O)c1nc2cnc3[nH]ccc3c2n1C1CCCN(C(=O)C2CCOC2)C1 (stereo not drawn) [Example 786, {3-[2-(1-Hydroxy-ethyl)-6H-1,3,5,6-tetraaza-as-indacen-1-yl]-piperidin-1-yl}-(tetrahydro-furan-3-yl)-methanone]
14 | 67.1 | 844 | 792 | 716 | C[C@@H](O)c1nc2cnc3[nH]ccc3c2n1[C@@H]1CCCN(C(=O)C2CCCC2)C1 [Example 788, Cyclopentyl-{(R)-3-[2-((R)-1-hydroxy-ethyl)-6H-1,3,5,6-tetraaza-as-indacen-1-yl]-piperidin-1-yl}-methanone]
15 | 79.9 | 884 | 740 | 587 | CC(O)c1nc2cnc3[nH]ccc3c2n1C1CCCN(C(=O)C2CC2(F)F)C1 (stereo not drawn) [Example 790, (2,2-Difluoro-cyclopropyl)-{3-[2-(1-hydroxy-ethyl)-6H-1,3,5,6-tetraaza-as-indacen-1-yl]-piperidin-1-yl}-methanone]
16 | 82.4 | 822 | 1080 | 814 | C[C@@H](O)c1nc2cnc3[nH]ccc3c2n1[C@@H]1CCCN(C(=O)CC2CC2)C1 [Example 791, 2-Cyclopropyl-1-{(R)-3-[2-((R)-1-hydroxy-ethyl)-6H-1,3,5,6-tetraaza-as-indacen-1-yl]-piperidin-1-yl}-ethanone]
17 | 76.4 | 1060 | 260 | 448 | C[C@@H](O)c1nc2cnc3[nH]ccc3c2n1[C@@H]1CCCN(C(=O)C2CCC2)C1 [Example 792, Cyclobutyl-{(R)-3-[2-((R)-1-hydroxy-ethyl)-6H-1,3,5,6-tetraaza-as-indacen-1-yl]-piperidin-1-yl}-methanone]
18 | 267 | 2360 | 2280 | 2010 | CC(C)CC(=O)N1CCC[C@@H](n2c([C@@H](C)O)nc3cnc4[nH]ccc4c32)C1 [Example 793, 1-{(R)-3-[2-((R)-1-Hydroxy-ethyl)-6H-1,3,5,6-tetraaza-as-indacen-1-yl]-piperidin-1-yl}-3-methyl-butan-1-one]
19 | 116 | 1230 | 886 | 420 | C[C@@H](O)c1nc2cnc3[nH]ccc3c2n1[C@@H]1CCCN(C(=O)C2CC2)C1 [Example 794, Cyclopropyl-{(R)-3-[2-((R)-1-hydroxy-ethyl)-6H-1,3,5,6-tetraaza-as-indacen-1-yl]-piperidin-1-yl}-methanone]
20 | 221 | 1370 | 876 | 698 | CCC(=O)N1CCC[C@@H](n2c([C@@H](C)O)nc3cnc4[nH]ccc4c32)C1 [Example 795, 1-{(R)-3-[2-((R)-1-Hydroxy-ethyl)-6H-1,3,5,6-tetraaza-as-indacen-1-yl]-piperidin-1-yl}-propan-1-one]
21 | 55 | 884 | 746 | 617 | CC(O)c1nc2cnc3[nH]ccc3c2n1C1CCCN(C(=O)C2CC2C)C1 (stereo not drawn) [Example 796, {3-[2-(1-Hydroxy-ethyl)-6H-1,3,5,6-tetraaza-as-indacen-1-yl]-piperidin-1-yl}-(2-methyl-cyclopropyl)-methanone]
22 | 163 | 1420 | 1460 | 1090 | CCOC(=O)N1CCC[C@@H](n2c([C@@H](C)O)nc3cnc4[nH]ccc4c32)C1 [Example 800, (R)-3-[2-((R)-1-Hydroxy-ethyl)-6H-1,3,5,6-tetraaza-as-indacen-1-yl]-piperidine-1-carboxylic acid ethyl ester]
23 | 7.74 | 76.8 | 51.5 | 64.9 | O=C1CCCN1CCc1nc2cnc3[nH]ccc3c2n1C1CCCCC1 [Example 801, 1-[2-(1-Cyclohexyl-1,6-dihydro-1,3,5,6-tetraaza-as-indacen-2-yl)-ethyl]-pyrrolidin-2-one]
24 | 7.77 | 79.5 | 48.6 | 54.7 | CC(=O)N(C)CCc1nc2cnc3[nH]ccc3c2n1C1CCCCC1 [Example 802, N-[2-(1-Cyclohexyl-1,6-dihydro-1,3,5,6-tetraaza-as-indacen-2-yl)-ethyl]-N-methyl-acetamide]
25 | 16.1 | 25.7 | 44 | 76.8 | CN(C)C(=O)CCc1nc2cnc3[nH]ccc3c2n1C1CCCCC1 [Example 803, 3-(1-Cyclohexyl-1,6-dihydro-1,3,5,6-tetraaza-as-indacen-2-yl)-N,N-dimethyl-propionamide]
26 | 3.78 | 15.9 | 34.7 | 257 | CCN1CCC(n2c(CCNC(C)=O)nc3cnc4[nH]ccc4c32)C(F)(F)C1 (stereo not drawn) [Example 807, N-{2-[1-(1-Ethyl-3,3-difluoro-piperidin-4-yl)-1,6-dihydro-1,3,5,6-tetraaza-as-indacen-2-yl]-ethyl}-acetamide]
27 | 4.77 | 128 | 34.1 | 303 | CCN1CC[C@@H](n2c(CCNS(C)(=O)=O)nc3cnc4[nH]ccc4c32)[C@@H](F)C1 [Example 808, N-{2-[1-((3S,4R)-1-Ethyl-3-fluoro-piperidin-4-yl)-1,6-dihydro-1,3,5,6-tetraaza-as-indacen-2-yl]-ethyl}-methanesulfonamide]
